Results from patent US9695155B2, “Herbicidal substituted pyrimidinyloxy benzene compounds” (E. I. DU PONT DE NEMOURS AND COMPANY, priority 2013, dated 2017).

Columns and labels:
[1] = tested on: barnyardgrass; experiment: Test A preemergence; assay type: in vivo, Echinochloa crus-galli; details: for Barnyardgrass plant response rating: 500 g ai/ha
How it was run: (§1)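 Injury scores run from 0, no effect, to 100, complete control, judged by eye against untreated plants roughly 10 days after treatment. Chemicals carried a surfactant in a non-phytotoxic solvent and went onto loam–sand soil preemergence or onto one- to two-leaf seedlings postemergence.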

[2] = tested on: large (Lg) crabgrass; experiment: Test A preemergence; assay type: in vivo, Digitaria sanguinalis; details: for Crabgrass, Large plant response rating: 500 g ai/ha
How it was run: as §1

[3] = tested on: giant foxtail; experiment: Test A preemergence; assay type: in vivo, Setaria faberii; details: for Foxtail, Giant plant response rating: 500 g ai/ha
How it was run: as §1

[4] = tested on: morningglory; experiment: Test A preemergence; assay type: in vivo, Ipomoea spp.; details: for Morningglory plant response rating: 500 g ai/ha
How it was run: as §1

[5] = tested on: pigweed; experiment: Test A preemergence; assay type: in vivo, Amaranthus retroflexus; details: for Pigweed plant response rating: 500 g ai/ha
How it was run: as §1

[6] = tested on: velvetleaf; experiment: Test A preemergence; assay type: in vivo, Abutilon theophrasti; details: for Velvetleaf plant response rating: 500 g ai/ha
How it was run: as §1

[7] = tested on: wheat; experiment: Test A preemergence; assay type: in vivo, Triticum aestivum; details: for Wheat plant response rating: 500 g ai/ha
How it was run: as §1

[8] = tested on: corn; experiment: Test A preemergence; assay type: in vivo, Zea mays; details: for Corn plant response rating: 500 g ai/ha
How it was run: as §1

[9] = tested on: barnyardgrass; experiment: Test A postemergence; assay type: in vivo, Echinochloa crus-galli
How it was run: as §1

[10] = tested on: large (Lg) crabgrass; experiment: Test A postemergence; assay type: in vivo, Digitaria sanguinalis
How it was run: as §1

[11] = tested on: giant foxtail; experiment: Test A postemergence; assay type: in vivo, Setaria faberii
How it was run: as §1

[12] = tested on: morningglory; experiment: Test A postemergence; assay type: in vivo, Ipomoea spp.
How it was run: as §1

[13] = tested on: pigweed; experiment: Test A postemergence; assay type: in vivo, Amaranthus retroflexus
How it was run: as §1

[14] = tested on: velvetleaf; experiment: Test A postemergence; assay type: in vivo, Abutilon theophrasti
How it was run: as §1

[15] = tested on: wheat; experiment: Test A postemergence; assay type: in vivo, Triticum aestivum
How it was run: as §1

[16] = tested on: corn; experiment: Test A postemergence; assay type: in vivo, Zea mays
How it was run: as §1

[17] = tested on: rice; experiment: Test B flooded paddy test; assay type: in vivo, Oryza sativa; details: Flood, 250 g ai/ha; 0 to 100 scale where 0 is no effect and 100 is complete control
How it was run: (§2)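 Evaluation is visual, against untreated controls, 13 to 15 days after treatment. Before treatment, plants reached the 2-leaf stage; pots were then flooded 3 cm deep, compound was added to the water, and that level was maintained. Ratings run 0 to 100, with 100 meaning complete control.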

[18] = tested on: sedge, umbrella; experiment: Test B flooded paddy test; assay type: in vivo, Cyperus difformis; details: Flood, 250 g ai/ha; 0 to 100 scale where 0 is no effect and 100 is complete control
How it was run: as §2

[19] = tested on: Heteranthera limosa; experiment: Test B flooded paddy test; assay type: in vivo; details: Flood, 250 g ai/ha; 0 to 100 scale where 0 is no effect and 100 is complete control
How it was run: as §2

[20] = tested on: barnyardgrass; experiment: Test B flooded paddy test; assay type: in vivo, Echinochloa crus-galli; details: Flood, 250 g ai/ha; 0 to 100 scale where 0 is no effect and 100 is complete control
How it was run: as §2

[21] = 0 to 100 scale where 0 is no effect and 100 is complete control
[22] = 125 g ai/ha, 0 to 100 scale where 0 is no effect and 100 is complete control
[23] = 500 g ai/ha, 0 to 100 scale where 0 is no effect and 100 is complete control
[24] = 0 to 100 scale, 0 no effect, 100 complete control, approx. 10 days
[25] = 500 g ai/ha, 0 to 100 scale, 0 no effect, 100 complete control

N#Cc1cnc(Oc2ccccc2-n2cc(Br)cn2)nc1 [Compound 233]
Barnyardgrass plant response rating (0 to 100 scale, 0 is no effect, 100 is complete control) ([1]; 125 g ai/ha): 0
Barnyardgrass plant response rating [1, 21]: 0
Crabgrass, Large plant response rating (0 to 100 scale) ([2]; 125 g ai/ha): 0
Crabgrass, Large plant response rating [2, 21]: 10
Foxtail, Giant plant response rating (0 to 100 scale) ([3]; 125 g ai/ha): 0
Foxtail, Giant plant response rating [3, 21]: 0
Morningglory plant response rating (0 to 100 scale) ([4]; 125 g ai/ha): 0
Morningglory plant response rating [4, 21]: 0
Pigweed plant response rating (0 to 100 scale) ([5]; 125 g ai/ha): 0
Pigweed plant response rating [5, 21]: 20
Velvetleaf plant response rating (0 to 100 scale) ([6]; 125 g ai/ha): 0
Velvetleaf plant response rating [6, 21]: 0
Wheat plant response rating (0 to 100 scale) ([7]; 125 g ai/ha): 0
Wheat plant response rating [7, 21]: 0
Corn plant response rating (0 to 100 scale) ([8]; 125 g ai/ha): 0
Corn plant response rating [8, 21]: 0
Barnyardgrass plant response rating [9, 22]: 0
Plant response rating, Barnyardgrass [9, 23]: 20
Crabgrass, Large plant response rating [10, 22]: 0
Plant response rating, Crabgrass, Large [10, 23]: 10
Foxtail, Giant plant response rating [11, 22]: 0
Plant response rating, Foxtail, Giant [11, 23]: 20
Morningglory plant response rating [12, 22]: 0
Plant response rating, Morningglory [12, 23]: 0
Pigweed plant response rating [13, 22]: 20
Plant response rating, Pigweed [13, 23]: 50
Velvetleaf plant response rating [14, 22]: 0
Plant response rating, Velvetleaf [14, 23]: 30
Wheat plant response rating [15, 22]: 0
Plant response rating, Wheat [15, 23]: 0
Corn plant response rating [16, 22]: 0
Plant response rating, Corn [16, 23]: 0
Plant response rating, Rice [17]: 20
Plant response rating, Sedge, Umbrella [18]: 50
Plant response rating, Ducksalad [19]: 50
Plant response rating, Barnyardgrass [20]: 10

Cc1cccc(Oc2ncc(Br)cn2)c1-n1cc(Br)cn1 [Compound 45]
Plant response rating, Barnyardgrass [1, 22]: 30
Barnyardgrass plant response rating [1, 24]: 100
Plant response rating, Crabgrass, Large [2, 22]: 90
Crabgrass, Large plant response rating [2, 24]: 100
Plant response rating, Foxtail, Giant [3, 22]: 90
Foxtail, Giant plant response rating [3, 24]: 100
Plant response rating, Morningglory [4, 22]: 0
Morningglory plant response rating [4, 24]: 10
Plant response rating, Pigweed [5, 22]: 100
Pigweed plant response rating [5, 24]: 100
Plant response rating, Velvetleaf [6, 22]: 100
Velvetleaf plant response rating [6, 24]: 100
Plant response rating, Wheat [7, 22]: 0
Wheat plant response rating [7, 24]: 0
Plant response rating, Corn [8, 22]: 0
Corn plant response rating [8, 24]: 20
Plant response rating, Barnyardgrass [9, 22]: 40
Plant response rating, Barnyardgrass [9, 25]: 100
Plant response rating, Crabgrass, Large [10, 22]: 60
Plant response rating, Crabgrass, Large [10, 25]: 100
Plant response rating, Foxtail, Giant [11, 22]: 70
Plant response rating, Foxtail, Giant [11, 25]: 90
Plant response rating, Morningglory [12, 22]: 10
Plant response rating, Morningglory [12, 25]: 20
Plant response rating, Pigweed [13, 22]: 60
Plant response rating, Pigweed [13, 25]: 80
Plant response rating, Velvetleaf [14, 22]: 100
Plant response rating, Velvetleaf [14, 25]: 100
Plant response rating, Wheat [15, 22]: 0
Plant response rating, Wheat [15, 25]: 40
Plant response rating, Corn [16, 22]: 10
Plant response rating, Corn [16, 25]: 70
Plant response rating, Rice [17]: 0
Plant response rating, Sedge, Umbrella [18]: 75
Plant response rating, Ducksalad [19]: 85
Plant response rating, Barnyardgrass [20]: 30

Clc1cnc(Oc2ccccc2-n2cc(-c3ccccc3)cn2)nc1 [Compound 22]
Plant response rating, Barnyardgrass [1, 22]: 0
Barnyardgrass plant response rating [1, 24]: 20
Plant response rating, Crabgrass, Large [2, 22]: 20
Crabgrass, Large plant response rating [2, 24]: 90
Plant response rating, Foxtail, Giant [3, 22]: 20
Foxtail, Giant plant response rating [3, 24]: 90
Plant response rating, Morningglory [4, 22]: 0
Morningglory plant response rating [4, 24]: 0
Plant response rating, Pigweed [5, 22]: 20
Pigweed plant response rating [5, 24]: 90
Plant response rating, Velvetleaf [6, 22]: 0
Velvetleaf plant response rating [6, 24]: 20
Plant response rating, Wheat [7, 22]: 0
Wheat plant response rating [7, 24]: 0
Plant response rating, Corn [8, 22]: 0
Corn plant response rating [8, 24]: 0
Plant response rating, Barnyardgrass [9, 22]: 50
Plant response rating, Barnyardgrass [9, 25]: 70
Plant response rating, Crabgrass, Large [10, 22]: 30
Plant response rating, Crabgrass, Large [10, 25]: 70
Plant response rating, Foxtail, Giant [11, 22]: 40
Plant response rating, Foxtail, Giant [11, 25]: 90
Plant response rating, Morningglory [12, 22]: 80
Plant response rating, Morningglory [12, 25]: 90
Plant response rating, Pigweed [13, 22]: 50
Plant response rating, Pigweed [13, 25]: 100
Plant response rating, Velvetleaf [14, 22]: 50
Plant response rating, Velvetleaf [14, 25]: 100
Plant response rating, Wheat [15, 22]: 0
Plant response rating, Wheat [15, 25]: 0
Plant response rating, Corn [16, 22]: 0
Plant response rating, Corn [16, 25]: 30
Plant response rating, Rice [17]: 40
Plant response rating, Sedge, Umbrella [18]: 80
Plant response rating, Ducksalad [19]: 65
Plant response rating, Barnyardgrass [20]: 20
